# Assay results from ChEMBL document CHEMBL5550209, “Hit-to-Lead Optimization of Heterocyclic Carbonyloxycarboximidamides as Selective Antagonists at Human Adenosine A3 Receptor” (J Med Chem, 2024).
# Assay: Plasma protein binding in human at 10 uM measured upto 24 hrs by equilibrium dialysis method
smiles,measurement,value
CN[C@H]1CC[C@@H](c2ccc(Cl)c(Cl)c2)c2ccccc21 [SERTRALINE],"fraction unbound at 24 h, 10 µM",0.01
